Converted amounts (≈) assume the structure as drawn.
Key:
[1] = Aggregation property of the compound in water at pH 7 assessed as light scattering intensity counts at 100 uM in presence of Triton X-100 by dynamic light scattering method; type: physicochemical; conditions: buffer, pH 7, 100 µM
[2] = Aggregation property of the compound in ammonium acetate buffer at pH 7.6 assessed as light scattering intensity counts at 100 uM in absence of Triton X-100 by dynamic light scattering method; type: physicochemical; conditions: pH 7.6, 100 µM
[3] = test system: Mycobacterium tuberculosis; assay: Antimycobacterial activity against Mycobacterium tuberculosis H37Rv; type: functional
[4] = Aggregation property of the compound in ammonium acetate buffer at pH 7.6 assessed as particle size at 100 uM in presence of Triton X-100 by dynamic light scattering method; type: physicochemical; conditions: pH 7.6, 100 µM
[5] = Aggregation property of the compound in water at pH 7 assessed as light scattering intensity counts at 100 uM in absence of Triton X-100 by dynamic light scattering method; type: physicochemical; conditions: buffer, pH 7, 100 µM
[6] = Aggregation property of the compound in ammonium acetate buffer at pH 7.6 assessed as particle size at 100 uM in absence of Triton X-100 by dynamic light scattering method; type: physicochemical; conditions: pH 7.6, 100 µM
[7] = Aggregation property of the compound in water at pH 7 assessed as particle size at 100 uM in presence of Triton X-100 by dynamic light scattering method; type: physicochemical; conditions: buffer, pH 7, 100 µM
[8] = test system: Mycobacterium tuberculosis; assay: Inhibition of Mycobacterium tuberculosis shikimate kinase assessed as reduction in S3P production at <50 uM pre-incubated for 30 mins before ATP and shikimate substrate addition by LC-MS assay
[9] = Aggregation property of the compound in water at pH 7 assessed as particle size at 100 uM in absence of Triton X-100 by dynamic light scattering method; type: physicochemical; conditions: buffer, pH 7, 100 µM
[10] = Aggregation property of the compound in ammonium acetate buffer at pH 7.6 assessed as light scattering intensity counts at 100 uM in presence of Triton X-100 by dynamic light scattering method; type: physicochemical; conditions: pH 7.6, 100 µM
[11] = test system: Mycobacterium tuberculosis; assay: Inhibition of Mycobacterium tuberculosis shikimate kinase assessed as reduction in S3P production at 100 uM pre-incubated with 0.2 uM enzyme for 30 mins before ATP and shikimate substrate addition in absence of Triton X-100 by LC-MS assay
[12] = test system: Mycobacterium tuberculosis; assay: Inhibition of Mycobacterium tuberculosis shikimate kinase assessed as reduction in S3P production at 100 uM pre-incubated with 0.02 uM enzyme for 30 mins before ATP and shikimate substrate addition in absence of Triton X-100 by LC-MS assay
[13] = test system: Mycobacterium tuberculosis; assay: Inhibition of Mycobacterium tuberculosis shikimate kinase assessed as reduction in S3P production at 100 uM pre-incubated with 0.2 uM enzyme for 30 mins before ATP and shikimate substrate addition in presence of Triton X-100 by LC-MS assay
[14] = test system: Mycobacterium tuberculosis; assay: Inhibition of Mycobacterium tuberculosis shikimate kinase assessed as reduction in S3P production at 100 uM pre-incubated with 0.02 uM enzyme for 30 mins before ATP and shikimate substrate addition in presence of Triton X-100 by LC-MS assay
[15] = Inhibition of Mycobacterium tuberculosis shikimate kinase assessed as reduction in S3P production […] pre-incubated with 0.015 uM enzyme for 30 mins before ATP and shikimate substrate addition by LC-MS assay
[16] = Aggregation property of the compound in ammonium acetate buffer at pH 7.6 assessed as particle size at 100 uM in presence of Triton X-100 by transmission electron microscopy; type: physicochemical; conditions: pH 7.6, 100 µM
[17] = Aggregation property of the compound in ammonium acetate buffer at pH 7.6 assessed as particle size at 100 uM in absence of Triton X-100 by transmission electron microscopy; type: physicochemical; conditions: pH 7.6, 100 µM

SMILES | Activity [1] [kCounts] | Activity [2] [kCounts] | IC90 [3] [µg/mL] | Activity [4] [nm] | Activity [5] [kCounts] | Activity [6] [nm] | Activity [7] [nm] | inhibition [8] [%] | Activity [9] [nm] | Activity [10] [kCounts] | inhibition [11] [%] | inhibition [12] [%] | inhibition [13] [%] | inhibition [14] [%] | IC50 [15] [µM] | Activity [16] [um] | Activity [17] [um]
CCSc1ccc(C(=O)Nc2nnc(-c3ccc4c(c3)CCCC4)o2)cc1 | 152 | 340 | 1.93 (≈ 5.09 µM) | 480 | 330 | 2005 | 410 | > 90 | 1921 | 158 |  |  |  |  |  |  | 
Cc1ccc(C)c(-c2nnc(NC(=O)c3ccc([N+](=O)[O-])s3)o2)c1 | 80 | 240 | 3.09 (≈ 8.97 µM) | 151 | 237 | 986 | 176 | > 90 | 973 | 85 |  |  |  |  |  |  | 
CC(C)(C)C(=O)Nc1nnc(-c2ccc(Br)cc2)o1 | 92 | 260 | < 0.2 | 201 | 250 | 1211 | 198 | > 90 | 1192 | 100 |  |  |  |  |  |  | 
Cc1ccc(-c2nnc(NC(=O)c3ccc([N+](=O)[O-])o3)o2)c(C)c1 | 72 | 190 | 0.69 (≈ 2.1 µM) | 131 | 182 | 851 | 131 | > 90 | 823 | 83 | 0 | 91.6 | 0 | 0 | 65.7 |  | 
O=C(Nc1nnc(-c2ccccc2Cl)o1)c1cccc(Oc2ccccc2)c1 | 170 | 350 | 0.86 (≈ 2.19 µM) | 516 | 330 | 2850 | 481 | > 90 | 2423 | 180 | 0 | 90 | 0 | 0 | 38.7 |  | 
CCCCC(=O)Nc1nnc(-c2ccc3c(c2)CCCC3)o1 | 100 | 280 | 3.04 (≈ 10.2 µM) | 255 | 260 | 1432 | 259 | > 90 | 1324 | 131 |  |  |  |  |  |  | 
Cc1cc(C)c2sc(N3CCCC3)nc2c1 | 130 | 300 | 1.75 (≈ 7.53 µM) | 373 | 290 | 1750 | 343 | > 90 | 1762 | 139 |  |  |  |  |  |  | 
CSc1ccc2nc(Nc3nc4ccc(NC(C)=O)cc4s3)sc2c1 | 115 | 285 | < 0.2 | 271 | 270 | 1531 | 275 | > 90 | 1438 | 122 | 0 | 97.4 | 0 | 0 | 60.6 | 0.03 | 0.7
O=C(/C=C/c1ccccc1)Nc1nnc(-c2ccc3c(c2)CCCC3)o1 | 138 | 310 | 1.68 (≈ 4.86 µM) | 390 | 306 | 1820 | 353 | > 90 | 1820 | 141 | 0 | 95 | 0 | 0 | 58.4 |  | 
CCc1cccc2sc(N(CCCn3ccnc3)C(=O)/C=C/c3cccs3)nc12 | 270 | 400 | 0.83 (≈ 1.96 µM) | 817 | 380 | 3776 | 908 | > 90 | 3823 | 286 |  |  |  |  |  |  | 
O=C(c1cccs1)N(CCCn1ccnc1)c1nc2c(F)cc(F)cc2s1 | 142 | 321 | 2.38 (≈ 5.88 µM) | 470 | 300 | 1934 | 398 | > 90 | 1852 | 150 |  |  |  |  |  |  | 
Cc1ccc(-c2nnc(NC(=O)c3ccccc3Cl)o2)c(C)c1 | 95 | 270 | < 0.2 | 212 | 255 | 1321 | 203 | > 90 | 1301 | 115 |  |  |  |  |  |  | 
CCOc1ccc(C(=O)Nc2nnc(-c3ccc(C)cc3C)o2)cc1 | 122 | 300 | 1.8 (≈ 5.34 µM) | 354 | 280 | 1620 | 275 | > 90 | 1583 | 123 |  |  |  |  |  |  | 

— ChEMBL document CHEMBL4184222, “A multifaceted approach to identify non-specific enzyme inhibition: Application to Mycobacterium tuberculosis shikimate kinase” (Bioorg Med Chem Lett, 2018)
